Source: article PMC6326523, “A high-throughput screen to identify novel small molecule inhibitors of the Werner Syndrome Helicase-Nuclease (WRN)” (PLoS ONE, 2019)

How the values were obtained:
[1] = test system: U2-OS cells; assay: U2-OS cell proliferation assay (WST-1); type: cell-based, human; conditions: 100 μM; for Effect on proliferation of U2-OS cells: Day 0 through Day 3
Description: WRN inhibitors were diluted in DMSO to a concentration 100-fold higher than their final concentrations. U2-OS cells in culture were counted, spun down and resuspended to 35,000 cells/mL in DMEM with 10% FBS and Pen/Strep antibiotic. For each cell condition, 15 μL of DMSO or inhibitor was added to 1.5 ml of U2-OS cells in DMEM or DMEM alone. One hundred μL of each cell condition was plated in triplicate on each of four 96-well plates representing days 0–3. Ten μL of WST-1 cell proliferation reagent (Roche) was added to the day 0 plate and readings were taken 2 hr later using a plate reader set to 450 nm. WST-1 cell proliferation reagent was added to plates on days 1–3 and readings were taken after 2 hr incubation. Percent cell proliferation was normalized to cells in the presence of DMSO with the background OD450 of DMEM with each drug subtracted out.
Fig 9 Effects of WRN helicase inhibitors on cancer cell proliferation. (A) Cell proliferation of HeLa 1.2.11 cells treated with 50 μM NCGC00029283-03, NCGC00063279-03, NCGC00357377-01 and NSC 617145 (positive control) or vehicle (DMSO) on Day 0 and Day 3 as measured using the WST-1 cell proliferation reagent. (B) Cell proliferation of U2-OS cells treated with increasing amounts of NCGC00029283-03 (0–100 μM) from Day 0 through Day 3. (C) Cell proliferation of U2-OS cells treated with increasing amounts of NCGC00063279-03 (0–100 μM) from Day 0 through Day 3. (D) Cell proliferation of U2-OS cells treated with 100 μM NCGC00357377-01 from Day 0 through Day 3.
HeLa cells are characterized by reduced expression of wild-type p53 as well as an inability to increase p53 levels after DNA damage due to human papillomavirus (HPV) elements. This raised the possibility that p53 status may play a role in the ability of small molecule WRN helicase inhibitors to affect cell proliferation. In addition, HeLa 1.2.11 cells are characterized by relatively long telomeres and use telomerase to maintain telomere length. Since WRN is implicated in the Alternative Lengthening of Telomeres (ALT) pathway, cells that are dependent on the ALT pathway may be more sensitive to WRN inhibitors as well. To address this possibility, we treated U2-OS osteosarcoma cells (which express wild-type p53 and utilize the ALT pathway for keeping very long telomeres) with all three compounds. In this case, we observed a 50% reduction in U2-OS cell proliferation two days after initial exposure to NCGC00029283-03 (100 μM).

[2] = molecular target: T1, full-length WRN helicase (Homo sapiens, UniProt Q14191); assay: Radiometric helicase inhibitor reversibility assay (100-fold dilution); type: biochemical; set-up: key to Reversibility: (-) = irreversible; (+) = minimally reversible; (++) = partially reversible; (+++) = reversible; conditions: for Reversibility: WRN 100 nM preincubated at 10-fold IC50, diluted 100-fold, unwinding 0-16 min; for Reversibility of inhibition (in words): full-length WRN
T1 construct: Full length recombinant WRN [18], BLM [19], and FANCJ [20] proteins were purified from insect cells; made in house; host or cells: insect cells
T1 sequence (Q14191 whole entry): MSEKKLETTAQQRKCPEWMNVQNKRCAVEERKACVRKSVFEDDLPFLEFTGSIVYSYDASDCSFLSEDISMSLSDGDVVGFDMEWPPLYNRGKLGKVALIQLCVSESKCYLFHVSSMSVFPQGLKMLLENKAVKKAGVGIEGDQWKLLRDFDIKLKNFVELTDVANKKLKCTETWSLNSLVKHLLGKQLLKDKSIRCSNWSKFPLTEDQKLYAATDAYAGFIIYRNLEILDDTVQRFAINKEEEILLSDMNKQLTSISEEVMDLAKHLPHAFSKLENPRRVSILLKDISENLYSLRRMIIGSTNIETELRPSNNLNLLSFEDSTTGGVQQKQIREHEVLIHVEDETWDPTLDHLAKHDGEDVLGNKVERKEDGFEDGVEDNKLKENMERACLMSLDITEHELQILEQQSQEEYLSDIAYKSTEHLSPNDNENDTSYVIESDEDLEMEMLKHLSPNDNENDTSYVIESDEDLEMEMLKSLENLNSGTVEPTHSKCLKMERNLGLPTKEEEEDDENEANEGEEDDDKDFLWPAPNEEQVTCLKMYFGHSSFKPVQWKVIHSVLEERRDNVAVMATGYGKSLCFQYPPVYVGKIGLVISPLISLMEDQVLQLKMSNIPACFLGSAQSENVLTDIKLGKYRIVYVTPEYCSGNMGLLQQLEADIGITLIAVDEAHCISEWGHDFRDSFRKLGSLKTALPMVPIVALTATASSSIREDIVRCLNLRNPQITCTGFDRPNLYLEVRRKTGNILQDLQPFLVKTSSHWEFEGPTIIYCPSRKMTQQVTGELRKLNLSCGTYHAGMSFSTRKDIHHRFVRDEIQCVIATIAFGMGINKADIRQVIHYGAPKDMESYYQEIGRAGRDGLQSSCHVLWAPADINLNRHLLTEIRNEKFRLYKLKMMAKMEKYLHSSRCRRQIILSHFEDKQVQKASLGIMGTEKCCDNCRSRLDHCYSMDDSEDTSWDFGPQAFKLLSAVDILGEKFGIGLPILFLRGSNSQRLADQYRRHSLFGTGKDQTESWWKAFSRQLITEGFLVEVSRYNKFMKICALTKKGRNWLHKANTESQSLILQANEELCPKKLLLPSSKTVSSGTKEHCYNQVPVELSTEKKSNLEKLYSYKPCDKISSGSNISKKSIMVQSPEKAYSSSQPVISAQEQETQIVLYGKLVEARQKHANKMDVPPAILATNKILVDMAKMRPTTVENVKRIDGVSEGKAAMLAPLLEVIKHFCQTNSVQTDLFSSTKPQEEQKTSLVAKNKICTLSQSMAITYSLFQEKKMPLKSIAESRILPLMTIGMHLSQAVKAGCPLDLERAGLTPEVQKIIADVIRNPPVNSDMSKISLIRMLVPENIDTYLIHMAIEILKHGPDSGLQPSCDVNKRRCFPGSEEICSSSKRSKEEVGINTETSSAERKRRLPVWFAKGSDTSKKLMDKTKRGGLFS
Description: WRN (full length, 100 nM concentration) was incubated with each small molecule inhibitor at a concentration 10-fold higher than the IC50 for that inhibitor, in a 10 μL reaction at room temperature. 1.5 μL of this reaction was added to 148.5 μL of reaction salts with 2 mM ATP, 0.5 nM FORKR reducing the full length WRN concentration to 1 nM and the drug concentration to 10-fold less than its IC50. Reactions were placed at 37°C and 20 μL of reaction were removed at specific intervals (0–16 min) and quenched with 20 μL of 2X STOP dye containing EDTA, glycerol, bromphenol blue and xylene cyanol. Samples were electrophoresed for 1.5 hr at 200 V on a 12% non-denaturing PAGE gel in 1X TBE Buffer.
Eighteen compounds were selected based on potency of inhibition in both the screening and radiometric assays, and exclusion of compounds with undesired chemical features. For each compound, we performed titrations over a wide range of concentrations with a fixed concentration of full-length WRN protein (1 nM), and quantitated unwinding as a percentage of full-length WRN unwinding of the FORKR DNA substrate (0.5 nM) in the absence of compound (Fig 6A and 6B, S3 Fig). […] In addition to determining an IC50 value for each compound, we also conducted helicase assays to determine the reversibility of inhibition by each compound tested. Details of the assay can be found in the Materials and Methods section, but briefly 100 nM WRN was incubated with each compound at a concentration 10-fold higher than its IC50 value. The reaction was diluted 100-fold with the addition of DNA substrate (0.5 nM final concentration) and ATP (2 mM final concentration) and unwinding was measured (Fig 7A–7D, S4 Fig). Inhibition was either classified as reversible, partially reversible, minimally reversible, or irreversible based on the ability of helicase activity to recover after dilution of the compound 100-fold. Table 2 summarizes the IC50 values and reversibility for each compound and includes IC50 values obtained from the screens for comparison.

[3] = molecular target: T2, full-length BLM helicase (Homo sapiens, UniProt P54132); assay: Radiometric helicase assay, full-length BLM; type: biochemical; conditions: for IC50: full-length BLM 0.1 nM, FORKR 0.5 nM
T2 construct: Full length recombinant WRN [18], BLM [19], and FANCJ [20] proteins were purified from insect cells; made in house; host or cells: insect cells
T2 sequence (P54132 whole entry): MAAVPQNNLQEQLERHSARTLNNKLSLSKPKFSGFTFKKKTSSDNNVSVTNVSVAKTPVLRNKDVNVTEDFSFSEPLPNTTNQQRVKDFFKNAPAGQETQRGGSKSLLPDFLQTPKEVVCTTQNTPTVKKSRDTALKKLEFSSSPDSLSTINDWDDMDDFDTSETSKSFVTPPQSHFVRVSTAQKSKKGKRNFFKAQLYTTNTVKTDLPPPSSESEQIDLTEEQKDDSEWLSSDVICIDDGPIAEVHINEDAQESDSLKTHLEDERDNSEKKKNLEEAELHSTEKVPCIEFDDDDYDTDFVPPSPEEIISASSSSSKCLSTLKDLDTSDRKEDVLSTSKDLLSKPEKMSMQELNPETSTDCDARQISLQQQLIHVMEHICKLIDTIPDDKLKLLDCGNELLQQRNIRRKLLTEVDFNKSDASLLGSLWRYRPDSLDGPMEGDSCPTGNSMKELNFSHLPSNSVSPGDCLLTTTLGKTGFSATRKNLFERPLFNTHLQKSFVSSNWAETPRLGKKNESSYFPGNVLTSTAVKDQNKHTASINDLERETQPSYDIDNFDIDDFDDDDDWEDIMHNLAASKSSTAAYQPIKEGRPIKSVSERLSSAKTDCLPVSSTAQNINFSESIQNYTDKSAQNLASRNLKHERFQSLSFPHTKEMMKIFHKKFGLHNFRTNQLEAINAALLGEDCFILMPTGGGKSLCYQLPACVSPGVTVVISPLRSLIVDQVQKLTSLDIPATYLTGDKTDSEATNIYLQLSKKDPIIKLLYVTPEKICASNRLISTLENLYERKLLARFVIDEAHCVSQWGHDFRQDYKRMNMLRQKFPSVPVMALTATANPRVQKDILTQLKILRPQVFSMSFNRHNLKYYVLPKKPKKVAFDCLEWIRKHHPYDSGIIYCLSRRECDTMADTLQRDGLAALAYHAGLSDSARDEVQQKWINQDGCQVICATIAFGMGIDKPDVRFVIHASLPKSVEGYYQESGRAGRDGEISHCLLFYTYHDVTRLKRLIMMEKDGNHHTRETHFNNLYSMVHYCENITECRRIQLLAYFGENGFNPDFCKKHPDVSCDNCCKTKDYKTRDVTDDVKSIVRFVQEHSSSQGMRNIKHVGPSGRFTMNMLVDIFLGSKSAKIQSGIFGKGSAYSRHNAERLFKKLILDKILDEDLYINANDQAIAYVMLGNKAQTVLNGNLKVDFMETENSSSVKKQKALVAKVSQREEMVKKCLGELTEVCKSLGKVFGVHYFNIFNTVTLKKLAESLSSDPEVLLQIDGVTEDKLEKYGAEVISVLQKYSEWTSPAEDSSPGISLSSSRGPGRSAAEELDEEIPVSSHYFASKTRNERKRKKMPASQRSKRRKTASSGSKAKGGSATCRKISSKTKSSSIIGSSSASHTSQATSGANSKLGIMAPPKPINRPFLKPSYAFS
Description: Fifteen μL of reaction buffer was added to a microcentrifuge tube followed by the addition of 1 μL of selected compounds (0.5–100 μM final concentration) or DMSO. One μL of WRN (full length), RECQ1, FANCJ, BLM or control was added to each reaction and incubated at room temperature for 15 min. Three μL of substrate (0.5 nM FORKR and 2 mM ATP final concentrations) were added to all reactions which were incubated at 37°C for 15 min. Reactions were stopped with the addition of 20 μL of 2X STOP dye containing EDTA, glycerol, bromphenol blue and xylene cyanol. Samples were electrophoresed for 1.5 hr at 200 V on a 12% non-denaturing PAGE gel in 1X TBE Buffer.
Three compounds identified from the cherry-picked set were tested for their effects on WRN exonuclease activity (20 nM) on the FORKR DNA substrate (1 nM) as well as DNA unwinding by full-length BLM (0.1 nM) and FANCJ (5 nM) helicases, which belong to the same Superfamily 2 as WRN [25], to assess their specificity for inhibition of WRN-catalyzed unwinding of the FORKR DNA substrate (0.5 nM). […] Nonetheless, these two compounds were also further tested in cell-based assays to assess their effects on proliferation.
Supplementary file pone.0210525.s005.TIF: S5 Fig Specificity of select WRN inhibitors for inhibition of other human helicases. (A) Quantitation of full-length BLM helicase (0.1 nM) activity on the FORKR DNA substrate (0.5 nM) with increasing concentration of each compound (0–100 μM). (B) Quantitation of full-length FANCJ (5 nM) helicase activity on the FORKR DNA substrate (0.5 nM) with increasing concentration of each compound (0–100 μM). (TIF) Click here for additional data file.

## Cc1ccc(-c2csc(NS(=O)(=O)c3cccc(F)c3)n2)o1 [MLS002251300-02]
[1]; listed as NCGC00357377
  Effect on proliferation of U2-OS cells: did not reduce cell proliferation
[1]; listed as NCGC00357377-01
  Effect on proliferation of U2-OS cells: did not have any effect
[2]
  Reversibility: ++
[3]; WRN vs BLM
  IC50 for WRN helicase inhibition fold less than that observed for BLM: 2.5 fold
[3]
  IC50: 13 ± 2.6 µM

## COc1ccc2nc(O)c(-c3noc(-c4ccc(F)cc4)n3)cc2c1 [NCGC00029283-02]
[1]
  Effect on proliferation of U2-OS cells: also detectable after three days
[1]; two days after initial exposure
  Reduction in U2-OS cell proliferation: 50%
[2]
  Reversibility: ++
  Reversibility of inhibition (in words): at least partially reversible
[3]
  IC50: 12.5 ± 1.8 µM

## COc1ccc2nc(O)c(-c3noc(-c4ccccc4)n3)cc2c1 [NCGC00063279-02]
[1]; after three days exposure
  Reduction in U2-OS cell proliferation: 40%
[2]
  Reversibility: +++
  Reversibility of inhibition (in words): at least partially reversible
[3]
  IC50: 46.1 µM
